Consider nine compounds from patent US20080160033A1, “Novel Screening Method” (Takeda Pharmaceutical Company Limited, priority 2003, published 2008).

In one data set the test system is 3T3-L1 cells. The data set can be described thus: Lipolysis (glycerol production) in 3T3-L1 adipose differentiation cells stimulated with isoproterenol. Type of data set: cell-based, mouse. The following applies: 1×10^−9 M isoproterenol plus fatty acid, 2 hours; differentiated 3T3-L1 cells. How it is done: Effects on lipolysis were examined using mouse fibroblast cell line 3T3-L1 cells capable of differentiating into adipocytes. […] The 3T3-L1 cells were plated on a plate and incubated to become confluent. The cells were then treated for 48 hours in the aforesaid medium containing 10 μg/ml of insulin, 0.5 mM 3-isobutyl-1-methylxanthine (IBMX), 2.5 μM dexamethasone to induce differentiation into adipose. Incubation was continued for further 11 days. After the 3T3-L1 cells were differentiated into adipose, a change in the amount of glycerol produced by lipolysis was assayed. After the cells were washed with modified Krebs-Ringer buffer, 1×10^−9 M isoproterenol was added to the cell and simultaneously a fatty acid was added thereto, followed by treatment for 2 hours. The supernatant was then recovered. The glycerol content in the supernatant was determined using Free Glycerol Determination Kit (Sigma).

Data set [1] has as its target T1, human 14273 (Homo sapiens, UniProt Q5NUL3).
T1 construct: expressed in transfected cells; host or cells: CHO-K1, transient transfection (Lipofectamine) with the pAKKO-111-based expression vector
T1 sequence (Q5NUL3 1-361): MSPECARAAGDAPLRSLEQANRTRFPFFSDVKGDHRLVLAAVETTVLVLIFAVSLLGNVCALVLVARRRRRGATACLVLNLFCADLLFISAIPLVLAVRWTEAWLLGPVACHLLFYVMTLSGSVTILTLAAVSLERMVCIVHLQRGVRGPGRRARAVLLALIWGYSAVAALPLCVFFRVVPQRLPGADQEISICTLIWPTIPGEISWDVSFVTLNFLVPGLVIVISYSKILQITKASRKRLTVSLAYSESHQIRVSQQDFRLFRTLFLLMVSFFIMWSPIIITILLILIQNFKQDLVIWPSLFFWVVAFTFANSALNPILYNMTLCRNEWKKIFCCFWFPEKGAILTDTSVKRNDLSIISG
The data set can be described thus: Change in intracellular calcium level (FLIPR) in CHO-K1 cells transiently expressing human 14273. Type of data set: cell-based. Particulars: 30 μM fatty acid (FIG. 1-5); human 14273-expressed CHO-K1 cells; no response in expression vector alone-transfected control cells. On the procedure:
(§1) CHO-K1 cells were incubated in Ham F-12 medium (Invitrogen) containing […] calf fetal serum, unless otherwise indicated. On the day before transfection, the cells were plated in 4.5×10^5/10 cm^2 and incubated at 37° C., for 15 hours or longer in a CO2 incubator adjusted to a 5% CO2 concentration. Transfection was carried out by a modification of the procedure described in the protocol attached to the reagent, using Lipofectamine reagent (Invitrogen). Where a 6-well plate was used for the incubator, the procedure was performed as follows. First, 2 tubes each having a 1.5 ml volume were prepared and 100 μl each of Opti-MEM-1 medium (Invitrogen) were dispensed in each tube. Next, after 1 μg of the expression vector was charged in one tube and in another tube 6 μl of the Lipofectamine reagent was charged, they were mixed and settled at room temperature for 20 minutes. A mixture for transfection of The resulting solution was added with 800 μl of Opti-MEM-1 medium and the resulting mixture for transfection was added to CHO-K1 cells previously washed with Opti-MEM-1 medium, followed by incubation in a CO2 incubator for 6 hours. The cells after incubation were rinsed with PBS (Invitrogen), then scraped off using 0.05% trypsin-EDTA solution (Invitrogen) and recovered by centrifugation. The cells collected were counted and diluted to contain 5×10^4 cells per 100 μl of the medium. The dilution was dispensed in a black walled 96-well plate (Costar) at a density of 100 μl/well, followed by incubation overnight in a CO2 incubator. Various samples were added to the CHO-K1 cells, which transiently expressed the receptor by the transfection procedure described above, and a change in intracellular calcium level was measured using FLIPR (Molecular Device). To measure the change in intracellular calcium level on FILPR; the cells were pretreated as follows. First, an assay buffer was prepared to add fluorescent dye Fluo3-AM (DOJIN) to the cells, or to wash the cells immediately before the FLIPR assay. A solution was prepared by adding 20 ml of 1M HEPES (pH 7.4) (DOJIN) to 1000 ml of HBSS (Invitrogen) (hereinafter, HBSS/HEPES solution). After 710 mg of probenecid (Sigma) was dissolved in 5 nil of 1N NaOH, 5 ml of the HBSS/HEPES solution was further added to the solution and the two solutions were mixed with each other. Then, 10 ml of the solution mixture was added to the HBSS/HEPES solution and the resulting solution was used as the assay buffer. Next, 50 μg of Fluo3-AM was added to 21 μl of DMSO (DOJIN) and an equal volume of 20% pluronic acid (Molecular Probes) was added thereto, followed by mixing them. […] Following the pretreatment above, a change in intracellular calcium level was determined with FLIPR, after various test samples were added.

The target in the next data set is T2, mouse 14273 (Mus musculus, UniProt Q7TMA4).
T2 construct: expressed in transfected cells; host or cells: CHO-K1, transient transfection (Lipofectamine) with the pAKKO-111-based expression vector
T2 sequence (Q7TMA4 1-361): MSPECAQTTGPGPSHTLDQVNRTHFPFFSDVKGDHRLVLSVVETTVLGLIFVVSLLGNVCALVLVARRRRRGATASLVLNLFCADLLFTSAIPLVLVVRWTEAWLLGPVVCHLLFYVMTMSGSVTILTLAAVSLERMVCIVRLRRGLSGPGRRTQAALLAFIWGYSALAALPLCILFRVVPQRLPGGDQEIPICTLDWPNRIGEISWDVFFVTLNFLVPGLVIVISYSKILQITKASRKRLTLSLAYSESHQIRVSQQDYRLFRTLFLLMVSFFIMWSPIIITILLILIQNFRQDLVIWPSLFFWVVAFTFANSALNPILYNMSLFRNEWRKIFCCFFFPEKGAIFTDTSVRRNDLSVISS
The data set can be described thus: Change in intracellular calcium level (FLIPR) in CHO-K1 cells transiently expressing mouse 14273. Type of data set: cell-based. Particulars: 30 μM fatty acid (FIG. 1-5); mouse 14273-expressed CHO-K1 cells; no response in expression vector alone-transfected control cells. How it is done: as §1
For orientation: Calcium flux is commonly read through the fluorescence of an indicator in the cells.

The target in data set [2] is T1, human 14273. The data set is described as follows: Effects of fatty acids on cAMP production in human 14273-expressed CHO cells. Type of data set: cell-based. The following applies: in the presence of forskolin (2 μM); fatty acid 30 μM (FIG. 9); not observed in control CHO cells without human 14273. On the procedure:
After the reaction, the cells were lysed in accordance with the formulation of cAMP Screen (ABI) and the intracellular cAMP level was assayed.
(cAMP levels reflect the balance of adenylyl cyclase and phosphodiesterase activity.)

For data set [3], the system named is mouse 14273-GFP fused protein. The data set can be described thus: Suppression of expression of mouse 14273-GFP fused protein by siRNA in CHO cells (enzyme immunoassay). Type of data set: cell-based. The following applies: siRNA 20 nM cotransfected to CHO cells, incubation for a day; absorbance at 450 nm. On the procedure:
After the culture supernatant was discarded and the cells were washed with HBSS (Invitrogen), the cells were fixed with 0.01% glutaraldehyde (Wako Pure Chemical) for 5 minutes, followed by blocking with 2% BSA-containing PBS (Takara Shuzo). Anti-GFP monoclonal antibody 3E6 (Nippon Gene) diluted to 500-fold was added to the cells. After incubation at room temperature for 2 hours, the cells were washed and HRP-labeled anti-mouse IgG antibody (ICN) diluted to 500-fold was added thereto, followed by incubation at room temperature for 2 hours. After washing, TMB microwell peroxidase substrate (Funakoshi) was added to the cells. After incubation for 30 minutes, sulfuric acid was added to discontinue the color-forming reaction and absorbance was measured at 450 nm.

Another data set has as its system AtT-20 cells. The data set can be described thus: Suppression of CRF-induced ACTH secretion from AtT-20 cells. Particulars: 10 nM CRF, 90 minutes; fatty acid with BSA.

On to `CCCCC/C=C\C/C=C\CCCCCCCC(=O)OC` [methyl linoleate], for which the “glycerol production increased by isoproterenol stimulation (lipolysis)” value with 3T3-L1 cells is “such an activity was not observed”.
As to `CCCCCC/C=C\CCCCCCCC(=O)O` [Palmitoleic acid], the “change in intracellular calcium level” value at human 14273 [1] and on mouse 14273 was “specifically responded (increased the intracellular calcium level)” each time.
`CCCCC/C=C\C/C=C\CCCCCCCC(=O)O` [linoleic acid]: the “change in intracellular calcium level” value on human 14273 [1] and at mouse 14273 was “specifically responded (increased the intracellular calcium level)” in each case. Further, the “cAMP production suppressing activity” value at human 14273 [2] was “showed the cAMP production suppressing activity”.
For the compound “m14i561: mouse 14273-specific siRNA; sense strand SEQ ID NO: 21, antisense strand SEQ ID NO: 22 (sense GGACCAGGAAAUUCCGAUUNN; antisense NNCCUGGUCCUUUAAGGCUAA; chemistry not fully specified; one strand is listed 3' to 5')”, the “suppression of the expression level of pAKKO-14273-GFP” value in data set [3] amounted to 97%.
Consider `CCCCCCCC/C=C\CCCCCCCC(=O)O` [oleic acid], for which, at human 14273 [2], the “cAMP production suppressing activity” value is reported as “showed the cAMP production suppressing activity”.
Take `CCCCC/C=C\C/C=C\C/C=C\CCCCC(=O)O` [γ-linolenic acid]: the “change in intracellular calcium level” value on human 14273 [1] and at mouse 14273 was “specifically responded (increased the intracellular calcium level)” each time. The “cAMP production suppressing activity” value at human 14273 [2] was “showed the cAMP production suppressing activity”. The “glycerol production increased by isoproterenol stimulation (lipolysis)” value in the data set on 3T3-L1 cells was “resulted in lowering the glycerol production”. For the same compound, the “suppression of ACTH secretion induced by CRF” value (“suppression … by CRF” for short) in the data set on AtT-20 cells is on record as “suppression of ACTH secretion induced by CRF was observed more significantly”.
In the case of `CC/C=C\C/C=C\C/C=C\CCCCCCCC(=O)O` [α-linoleic acid], the “suppression … by CRF” value in the data set with AtT-20 cells is recorded as “suppression of ACTH secretion induced by CRF was observed more significantly”.
Turning to `CCCC(=O)O` [butyric acid], the “cAMP production suppressing activity” value on human 14273 [2] is given as “did not show any suppressing activity”. In addition, the “suppression … by CRF” value in the data set on AtT-20 cells is “did not show any significant suppression”.
Consider `CCCCC/C=C\C/C=C\C/C=C\C/C=C\CCCC(=O)O` [arachidonic acid], for which the “change in intracellular calcium level” value on human 14273 [1] and on mouse 14273 was “specifically responded (increased the intracellular calcium level)” throughout.
